Data from article PMC6210072 (ACS Omega, 2018).

Legend:
[1] = molecular target: PARP2 (Homo sapiens, UniProt Q9UGN5); format: biochemical
[2] = molecular target: ROCK2 (Homo sapiens, UniProt O75116); format: biochemical; conditions: read-out: ROCK2
Chain of ROCK2 (O75116 whole entry): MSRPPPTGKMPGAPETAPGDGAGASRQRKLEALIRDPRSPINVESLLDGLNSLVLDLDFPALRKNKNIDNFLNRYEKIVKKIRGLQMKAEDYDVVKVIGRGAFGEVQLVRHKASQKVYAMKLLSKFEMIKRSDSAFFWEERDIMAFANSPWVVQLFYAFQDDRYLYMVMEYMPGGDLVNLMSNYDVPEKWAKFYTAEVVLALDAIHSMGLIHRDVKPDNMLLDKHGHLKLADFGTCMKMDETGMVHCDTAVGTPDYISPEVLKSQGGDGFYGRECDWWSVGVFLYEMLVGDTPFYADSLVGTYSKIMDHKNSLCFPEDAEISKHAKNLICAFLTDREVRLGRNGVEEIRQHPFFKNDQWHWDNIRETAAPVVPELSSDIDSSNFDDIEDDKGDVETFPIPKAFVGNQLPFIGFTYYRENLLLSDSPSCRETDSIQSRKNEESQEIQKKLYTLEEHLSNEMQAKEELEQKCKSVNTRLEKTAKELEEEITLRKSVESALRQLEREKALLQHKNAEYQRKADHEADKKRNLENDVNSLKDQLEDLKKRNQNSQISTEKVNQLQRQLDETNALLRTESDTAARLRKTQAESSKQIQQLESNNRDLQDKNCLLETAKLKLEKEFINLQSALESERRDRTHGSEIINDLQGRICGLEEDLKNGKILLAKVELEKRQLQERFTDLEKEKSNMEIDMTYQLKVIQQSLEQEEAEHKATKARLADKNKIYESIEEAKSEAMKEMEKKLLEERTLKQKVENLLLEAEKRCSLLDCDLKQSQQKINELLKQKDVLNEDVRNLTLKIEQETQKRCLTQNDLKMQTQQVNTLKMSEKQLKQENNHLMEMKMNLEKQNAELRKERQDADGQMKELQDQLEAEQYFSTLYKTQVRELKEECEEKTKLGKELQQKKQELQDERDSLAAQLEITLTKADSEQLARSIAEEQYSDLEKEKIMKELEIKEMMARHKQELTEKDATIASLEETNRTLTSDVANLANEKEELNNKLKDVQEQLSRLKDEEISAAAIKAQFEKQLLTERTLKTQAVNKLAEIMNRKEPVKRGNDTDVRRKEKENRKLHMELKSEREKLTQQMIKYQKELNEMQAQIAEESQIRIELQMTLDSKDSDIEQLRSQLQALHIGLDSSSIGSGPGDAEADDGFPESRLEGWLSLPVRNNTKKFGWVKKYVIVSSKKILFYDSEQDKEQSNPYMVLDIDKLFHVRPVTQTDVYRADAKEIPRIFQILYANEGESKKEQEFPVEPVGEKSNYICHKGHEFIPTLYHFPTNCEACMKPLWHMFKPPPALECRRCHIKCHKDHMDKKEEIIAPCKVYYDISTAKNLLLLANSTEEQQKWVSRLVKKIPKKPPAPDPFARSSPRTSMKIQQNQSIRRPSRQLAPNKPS

Chain of PARP2 (Q9UGN5 whole entry): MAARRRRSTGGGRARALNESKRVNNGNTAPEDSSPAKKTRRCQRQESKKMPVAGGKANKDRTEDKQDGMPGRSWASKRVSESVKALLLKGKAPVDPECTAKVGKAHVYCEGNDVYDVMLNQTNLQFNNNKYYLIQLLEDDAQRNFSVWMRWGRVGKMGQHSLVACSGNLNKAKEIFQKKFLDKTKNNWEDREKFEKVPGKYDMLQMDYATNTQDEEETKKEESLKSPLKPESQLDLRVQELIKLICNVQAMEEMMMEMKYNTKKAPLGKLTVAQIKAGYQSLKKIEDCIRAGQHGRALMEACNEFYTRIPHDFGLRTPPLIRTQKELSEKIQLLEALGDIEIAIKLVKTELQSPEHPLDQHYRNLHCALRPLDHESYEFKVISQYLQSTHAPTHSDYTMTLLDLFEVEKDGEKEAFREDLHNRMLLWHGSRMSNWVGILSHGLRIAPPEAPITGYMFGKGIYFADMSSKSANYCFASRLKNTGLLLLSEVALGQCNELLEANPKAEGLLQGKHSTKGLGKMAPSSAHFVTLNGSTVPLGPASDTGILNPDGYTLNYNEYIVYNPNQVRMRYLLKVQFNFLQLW

IC50 [1] | inhibition at 10 µM [2] | Compound
35.1 µM | – | O=S(=O)(c1cccc2c(O)nccc12)N1CCCNCC1 [compound 4, hydroxyfasudil]
– | 20.5 ± 0.4% | O=C(COc1cccc2c(=O)[nH]ccc12)c1ccccc1 [compound 6, UPF 1069]
